Consider 1 compound from publication PMC2362735, “New semisynthetic vinca alkaloids: chemical, biochemical and cellular studies” (British Journal of Cancer, 1999).

Read-outs that look alike come from different tables or passages of the source.

Test [1] has as its system Human neuroblastoma cell line (SH-SY5Y). Description: Microculture tetrazolium assay (MTA), cytotoxicity. As to conditions: Homo sapiens, 96 h. From the text:
(§1) The numerous antimitotic drugs already developed and therapeu- tically used for a large number of pathologies belong to different classes based on their chemical structure and other distinctive features. Antimitotic drugs usually target the tubulin/microtubule network of the cytoskeleton that is formed by assembly of cyto- plasmic tubulin dimers. The stability of the different microtubular structures varies considerably; some of their functions depend on their lability. The lability is augmented by the extreme sensitivity to various drugs. Several synthetic and natural compounds interact specifically with tubulin and/or microtubule, fundamentally destroying its dynamic character and leading to cell death. […] Because of their extensive clinical use, it is important to synthesize additional agents having at least the same biological activity. […] Nevertheless, it is unclear yet how the anti-calmodulin activity of these drugs is related to their desired and undesired pharmacological effects. […] The synthesis of the KAR derivatives are presented. […] Taxol, GTP and trifluoperazine were purchased from Sigma. All organic reagents for synthesis of the new compounds were obtained from Aldrich and were of the highest grade. All other chemicals were reagent grade commercial preparations. […] Tubulin was stored in 1 M sucrose, 10 mM sodium phosphate buffer, 0.5 mM magnesium chloride and 0.1 mM GTP, pH 7.0, at -80C and dialysed against the appropriate buffer before use. […] PFK, aldolase and glycerol-3-phosphate dehydrogenase- triosephosphate isomerase purified from rabbit skeletal muscle were purchased in ammonium sulphate suspensions from Sigma or Boehringer. The enzyme suspensions were centrifuged at 10 000g for 5 min. The pellets were suspended in the appropriate buffer, then the enzymes were gel filtered or dialysed in the same buffer to remove ammonium sulphate. […] (Figure 1B; R1 , CH3; R2 , CH2 CH2 Cl). […] After 2 h incubation at room temperature, 200 ml dried toluene was added to the reaction mixture. […] The mixture was stirred for 30 min. After separation of the organic phase, it was washed with water (3 x 30 ml) and dried with potassium sulphate and evaporated on a water bath of 35-40C at 20-27 hPa. The resulting material was chromatographed on silica gel (500 g, bead size of 0.040- 0.063 mm) column (30 mm x 500 mm) using ethyl acetate/ethanol (9:1) mixture as eluent. […] The mixture was kept for 4 h at room temperature and then evaporated on a water bath at 40C under a vacuum of 80 hPa to a final volume of 5-6 ml. […] (Figure 1B, R1 , CHO; R2 , CH2 CH2 Cl). […] Synthesis of KAR-4 [3-allyl-2,4-dioxo-3,5-spiro-oxazolidino- 4-deacetoxy-vinblastine] (Figure 1B; R1 , CH3; R2 , CH2 CH=CH2 ). […] NMR measurements were carried out on a Varian Unity plus-500 instrument (500 MHz for 1H and 125 MHz for 13C) in DMSO. Chemical shifts were determined relative to dTMS = 0.00 p.p.m. 1H and 13C signal assignments were verified by a concerted use of two-dimensional 1H-1H and 1H-13C shift correlation methods (DQFCOSY, HSQC, HMBC) and NOESY experiments. The gradient-enhanced DQFCOSY, HSQC, HMBC and NOESY experiments were recorded by using the standard spectrometer software package. A mixing time of tmix = 0.5 s was used for the NOESY experiments.

Test [2] relates to tubulin. The test can be described thus: Taxol-induced tubulin polymerization, turbidity at 350 nm. Type of test: biochemical, calf. As to conditions: taxol-induced assembly, MES buffer pH 6.8, 37C; average of three independent measurements; read-out: Anti-tubulin effect, turbidity at 350 nm, IC50.
Text: as §1

Test [3] relates to tubulin/microtubule, PFK-bundled microtubules. The test can be described thus: Tubulin polymerization with or without PFK (bundled vs single microtubules): turbidity and pelleting with SDS-PAGE. It is filed as biochemical, calf. As to conditions: 10 M tubulin, 2 M drug, 20 µM taxol, SDS-PAGE of supernatant and pellet. From the text: The numerous antimitotic drugs already developed and therapeu- tically used for a large number of pathologies belong to different classes based on their chemical structure and other distinctive features. Antimitotic drugs usually target the tubulin/microtubule network of the cytoskeleton that is formed by assembly of cyto- plasmic tubulin dimers. The stability of the different microtubular structures varies considerably; some of their functions depend on their lability. The lability is augmented by the extreme sensitivity to various drugs. Several synthetic and natural compounds interact specifically with tubulin and/or microtubule, fundamentally destroying its dynamic character and leading to cell death. […] Because of their extensive clinical use, it is important to synthesize additional agents having at least the same biological activity. […] Nevertheless, it is unclear yet how the anti-calmodulin activity of these drugs is related to their desired and undesired pharmacological effects. […] The synthesis of the KAR derivatives are presented. […] Taxol, GTP and trifluoperazine were purchased from Sigma. All organic reagents for synthesis of the new compounds were obtained from Aldrich and were of the highest grade. All other chemicals were reagent grade commercial preparations. […] Tubulin was stored in 1 M sucrose, 10 mM sodium phosphate buffer, 0.5 mM magnesium chloride and 0.1 mM GTP, pH 7.0, at -80C and dialysed against the appropriate buffer before use. […] PFK, aldolase and glycerol-3-phosphate dehydrogenase- triosephosphate isomerase purified from rabbit skeletal muscle were purchased in ammonium sulphate suspensions from Sigma or Boehringer. The enzyme suspensions were centrifuged at 10 000g for 5 min. The pellets were suspended in the appropriate buffer, then the enzymes were gel filtered or dialysed in the same buffer to remove ammonium sulphate. […] (Figure 1B; R1 , CH3; R2 , CH2 CH2 Cl). […] After 2 h incubation at room temperature, 200 ml dried toluene was added to the reaction mixture. […] The mixture was stirred for 30 min. After separation of the organic phase, it was washed with water (3 x 30 ml) and dried with potassium sulphate and evaporated on a water bath of 35-40C at 20-27 hPa. The resulting material was chromatographed on silica gel (500 g, bead size of 0.040- 0.063 mm) column (30 mm x 500 mm) using ethyl acetate/ethanol (9:1) mixture as eluent. […] The mixture was kept for 4 h at room temperature and then evaporated on a water bath at 40C under a vacuum of 80 hPa to a final volume of 5-6 ml. […] (Figure 1B, R1 , CHO; R2 , CH2 CH2 Cl). […] Synthesis of KAR-4 [3-allyl-2,4-dioxo-3,5-spiro-oxazolidino- 4-deacetoxy-vinblastine] (Figure 1B; R1 , CH3; R2 , CH2 CH=CH2 ). […] NMR measurements were carried out on a Varian Unity plus-500 instrument (500 MHz for 1H and 125 MHz for 13C) in DMSO. Chemical shifts were determined relative to dTMS = 0.00 p.p.m. 1H and 13C signal assignments were verified by a concerted use of two-dimensional 1H-1H and 1H-13C shift correlation methods (DQFCOSY, HSQC, HMBC) and NOESY experiments. The gradient-enhanced DQFCOSY, HSQC, HMBC and NOESY experiments were recorded by using the standard spectrometer software package. A mixing time of tmix = 0.5 s was used for the NOESY experiments. […] Mass spectrum was recorded on a Kratos MS 80 instrument using FAB.

Test [4] addresses T1, calmodulin (Bos taurus, UniProt P62157).
T1 construct: Calmodulin from bovine brain was purified to homogeneity using Phenyl-Sepharose (Pharmacia) chromatography; from tissue; host or cells: bovine brain
Also on record: method as in Molnar et al (1995). As to conditions: ref Molnar et al (1995); cited from earlier work.

The subject of test [5] is mouse leukaemia P388. Also on record: method as in Orosz et al, 1997a. As to conditions: P388, 0.2 mg kg-1, eightfold treatment; ref Orosz et al, 1997a; cited from earlier work.

On to `CC[C@]1(O)C[C@@H]2CN(CCc3c([nH]c4ccccc34)[C@@](C(=O)OC)(c3cc4c(cc3OC)N(C)[C@H]3[C@@](O)(C(=O)OC)[C@H](OC(C)=O)[C@]5(CC)C=CCN6CC[C@]43[C@@H]65)C2)C1` [Vinblastine, vinblastine, reference compound], for which the IC50 in test [1] (read-out: Cytotoxicity MTA IC50) was 5e-09 M; in test [1] (read-out: Cytotoxicity MTA IC50 (M)) it was 5e-09 M; in test [2] it was […]. Further, the “tubulin partition in pelleting experiment, without PFK” value in test [3] (no PFK) is “practically all tubulin appears in the super- natants”. The “tubulin partition in pelleting experiment, with PFK (bundled microtubules)” value in test [3] (2 M PFK) is “significant amount of tubulins were assembled into microtubules”. In addition, the “Anti-calmodulin activity: Efficiency (%)” value in test [4] was 61%. Moreover, the T/C in test [5] is given as 199%.

For orientation: IC50 means the midpoint of a concentration-inhibition curve. Broadly, the T/C is the result in the treated group divided by that in the control group, in per cent.
